Assay results reported in patent publication US6333338A, “Bispiperidines as antithrombotic agents” (Laboratoire L. Lafon, priority 1998, dated 2001).
Counter-ions that a name gives are not always drawn. Like-named read-outs stand apart in the source and are kept apart here.

What was measured:
guinea pig platelets [1] = assay: In vitro inhibition of collagen-induced platelet aggregation, guinea pig platelets (PRP); format: cell-based, guinea pig (male Dunkin-Hartley); settings: collagen 1 μg/ml, 3 minutes of contact at 37° C.
Method: (§1) A study of the inhibitory activity of the compounds of formula I on platelet aggregation was carried out in vitro, i.e. by direct contact of solutions of variable concentrations of the compounds with platelets freshly separated from a sample of total blood, taken under standardized conditions, from laboratory animals (guinea pigs) and from healthy human subjects who have not received any substances or drugs that might interfere with blood clotting. The anti-platelet-aggregating activity was also studied ex vivo/vitro, i.e. after administration of the substances claimed to guinea pigs to measure the intensity and duration of the anti-aggregating action induced by the fraction of the test product absorbed and circulating in the blood.
Blood is taken by intracardiac puncture from male Dunkin-Hartley guinea pigs (weighing about 330 g), at a rate of 4.5 ml per 0.5 ml of trisodium citrate (concentration of the aqueous solution: 1.55%) in order to prevent all trace of clotting. The platelet-rich plasma (PRP) is obtained by centrifuging the tubes of total blood for 15 minutes at 150 g.
The PRPs are collected as "pools". The platelets contained in these pools are counted using a Coulter ZM haematology automatic device: if necessary, a dilution is carried out in order for the platelet concentration in the plasma to be between 200,000 and 400,000 platelets/mm^3. Simultaneously, other samples of these pools serve to prepare the platelet-poor plasma (PPP) by centrifugation at 1500 g for 15 minutes.
The kinetic study of the platelet aggregation is carried out by adding a collagen solution (1 μg/ml) to a volume of PRP, using a Chrono-log Corporation aggregometer (490-D1 or 560 VS) which uses an optical detection of the appearance of the thrombus.
The measurements of the aggregation inhibition are carried out after 3 minutes of contact at 37° C. with agitation.

guinea pig platelets [2] = assay: Ex vivo/vitro inhibition of platelet aggregation after administration via the gastric route in guinea pigs; parameters: species or system guinea pig (Dunkin-Hartley); settings: fasted guinea pigs; for inhibition at 10 mg/kg / inhibition at 150 mg/kg: Cavia porcellus, Platelet
Method: as §1, with “blood. Evaluation of the anti-platelet-aggregating activity of the compounds is carried out in the same guinea pigs as those mentioned above (Dunkin-Hartley strain). […] The allocation of the treatments to the animals is random. The blood is taken and then treated under the same conditions as those described above for the in vitro studies. The results of the inhibition of the platelet aggregation obtained for each test concentration make it possible to calculate the IC50 concentration of each test product and the kinetics of the inhibitory effect and its duration of action.” for “blood.”

[3] = Cavia porcellus, Platelet, 0.05 h
[4] = 10 mg/kg, 1 h before blood sampling, read-out: % of g.r. inhibition guinea pig ex vivo, d = 10 mg/kg, 1 h
[5] = 10 mg/kg, 2 h before blood sampling, read-out: % of g.r. inhibition guinea pig ex vivo, d = 10 mg/kg, 2 h
[6] = 1 h before blood sampling, read-out: % of g.r. inhibition guinea pig ex vivo, d = 150 mg/kg, 1 h
[7] = 2 h before blood sampling, read-out: % of g.r. inhibition guinea pig ex vivo, d = 150 mg/kg, 2 h

## O=C(CNC(=O)C(CCC1CCNCC1)CCC1CCNCC1)NC[C@H](NS(=O)(=O)CCCCl)C(=O)O [Example 51, 2-{[(3-Chloropropyl)sulphonyl]amino}-3-{[2-({4-(4-piperidyl)-2-[2-(4-piperidyl)ethyl]butanoyl}amino)acetyl]amino}propanoic Acid Dihydrochloride]
Guinea pig platelets [1]; [3]
  IC50: 11 µM
Guinea pig platelets [2]; [4]
  inhibition at 10 mg/kg: 4%
Guinea pig platelets [2]; [5]
  inhibition at 10 mg/kg: -21%

## O=C(CNC(=O)C(CCC1CCNCC1)CCC1CCNCC1)NCC(NS(=O)(=O)c1ccc(C2CCCCC2)cc1)C(=O)O (stereo not drawn) [Example 61, 2-{[(4-Cyclohexylphenyl)sulphonyl]amino)-3-{[2-({4-(4-piperidyl)-2-[2-(4-piperidyl)ethyl]butanoyl}amino)acetyl]amino}propanoic Acid Dihydrochloride]
Guinea pig platelets [1]; [3]
  IC50: 1.4 µM
Guinea pig platelets [2]; [4]
  inhibition at 10 mg/kg: -21%
Guinea pig platelets [2]; [5]
  inhibition at 10 mg/kg: -9%

## O=C(CNC(=O)C(CCC1CCNCC1)CCC1CCNCC1)NCC(NS(=O)(=O)c1ccc2c(c1)OCCO2)C(=O)O (stereo not drawn) [Example 58, 2-[(2,3-Dihydro-1,4-benzodioxin-6-ylsulphonyl)amino]-3-{[2-({4-(4-piperidyl)-2-[2-(4-piperidyl)ethyl]butanoyl}amino)acetyl]amino}propanoic Acid Dihydrochloride]
Guinea pig platelets [1]; [3]
  IC50: 0.59 µM
Guinea pig platelets [2]; [4]
  inhibition at 10 mg/kg: -36%
Guinea pig platelets [2]; [5]
  inhibition at 10 mg/kg: -21%

## O=C(CNC(=O)C(CCC1CCNCC1)CCC1CCNCC1)NCC(NS(=O)(=O)c1ccc2c(c1)CCCC2)C(=O)O (stereo not drawn) [Example 72, 2-[(5,6,7,8-Tetrahydro-2-naphthalenylsulphonyl)amino]3-{[2-({4-(4-piperidyl)-2-[2-(4-piperidyl)ethyl]butanoyl}amino)acetyl]amino}propanoic Acid Dihydrochloride]
Guinea pig platelets [1]; [3]
  IC50: 0.34 µM
Guinea pig platelets [2]; [4]
  inhibition at 10 mg/kg: -60%
Guinea pig platelets [2]; [5]
  inhibition at 10 mg/kg: -67%

## Cc1n[nH]c(C)c1S(=O)(=O)NC(CNC(=O)CNC(=O)C(CCC1CCNCC1)CCC1CCNCC1)C(=O)O (stereo not drawn) [Example 55, 2-{[3,5-Dimethyl-1H-pyrazol-4-yl)sulphonyl]amino}-3-{[2-({4-(4-piperidyl)-2-[2-(4-piperidyl)ethyl]butanoyl}amino)acetyl]amino}propanoic Acid Dihydrochloride]
Guinea pig platelets [1]; [3]
  IC50: 3.5 µM
Guinea pig platelets [2]; [4]
  inhibition at 10 mg/kg: -21%
Guinea pig platelets [2]; [5]
  inhibition at 10 mg/kg: -17%

## Cl.Cl.O=C(CNC(=O)C(CCC1CCNCC1)CCC1CCNCC1)NCC(NS(=O)(=O)CCc1ccccc1)C(=O)O (stereo not drawn) [Example 43, 2-[(2-Phenethylsulphonyl)amino]-3-{[2-({4-(4-piperidyl)-2-[2-(4-piperidyl)ethyl]butanoyl}amino)acetyl]amino}propanoic Acid Dihydrochloride]
Guinea pig platelets [1]
  IC50: 1.2 µM
Guinea pig platelets [2]; 10 mg/kg, 1 h before blood sampling
  % of g.r. inhibition guinea pig ex vivo, d = 10 mg/kg, 1 h: -15%
Guinea pig platelets [2]; 10 mg/kg, 2 h before blood sampling
  % of g.r. inhibition guinea pig ex vivo, d = 10 mg/kg, 2 h: -4%

## O=C(CNC(=O)C(CCC1CCNCC1)CCC1CCNCC1)NCC(NS(=O)(=O)c1cccc2cccnc12)C(=O)O (stereo not drawn) [Example 47, 2-[(8-Quinolinylsulphonyl)amino]-3-{[2-({4-(4-piperidyl)-2-[2-(4-piperidyl)ethyl]butanoyl}amino)acetyl]amino}propanoic Acid Trihydrochloride]
Guinea pig platelets [1]; [3]
  IC50: 1.9 µM
Guinea pig platelets [2]; [4]
  inhibition at 10 mg/kg: -4%
Guinea pig platelets [2]; [5]
  inhibition at 10 mg/kg: -17%

## O=C(CNC(=O)C(CCC1CCNCC1)CCC1CCNCC1)NCC(NS(=O)(=O)c1ccc(F)c2ccccc12)C(=O)O (stereo not drawn) [Example 62, 2-{[(4-Fluoro-1-naphthyl)sulphonyl]amino}-3-{[2-({4-(4-piperidyl)-2-[2-(4-piperidyl)ethyl]butanoyl}amino)acetyl]amino}propanoic Acid Dihydrochloride]
Guinea pig platelets [1]; [3]
  IC50: 0.095 µM
Guinea pig platelets [2]; [4]
  inhibition at 10 mg/kg: -69%
Guinea pig platelets [2]; [5]
  inhibition at 10 mg/kg: -33%

## Cc1cccc(S(=O)(=O)NC(CNC(=O)CNC(=O)C(CCC2CCNCC2)CCC2CCNCC2)C(=O)O)c1 (stereo not drawn) [Example 40, 2-{[(3-Methylphenyl)sulphonyl]amino}-3-{[2-({4-(4-piperidyl)-2-[2-(4-piperidyl)ethyl]butanoyl}amino)acetyl]amino}propanoic Acid Dihydrochloride]
Guinea pig platelets [1]; [3]
  IC50: 0.4 µM
Guinea pig platelets [2]; [4]
  inhibition at 10 mg/kg: -32%
Guinea pig platelets [2]; [5]
  inhibition at 10 mg/kg: -10%

## O=C(CNC(=O)C(CCC1CCNCC1)CCC1CCNCC1)NC[C@H](NS(=O)(=O)c1cccnc1)C(=O)O [Example 56, 2-[(3-Pyridylsulphonyl)amino]3-{[2-({4-(4-piperidyl)-2-[2-(4-piperidyl)ethyl]butanoyl}amino)acetyl]amino}propanoic Acid Trihydrochloride]
Guinea pig platelets [1]; [3]
  IC50: 0.23 µM
Guinea pig platelets [2]; [4]
  inhibition at 10 mg/kg: -61%
Guinea pig platelets [2]; [5]
  inhibition at 10 mg/kg: -50%

## O=C(CNC(=O)C(CCC1CCNCC1)CCC1CCNCC1)NCC(NS(=O)(=O)Cc1ccc2ccccc2c1)C(=O)O (stereo not drawn) [Example 69, 2-{[(2-Naphthylmethyl)sulphonyl]amino}-3-{[2-({4-(4-piperidyl)-2-[2-(4-piperidyl)ethyl]butanoyl}amino)acetyl]amino}propanoic Acid Dihydrochloride]
Guinea pig platelets [1]; [3]
  IC50: 1.9 µM
Guinea pig platelets [2]; [4]
  inhibition at 10 mg/kg: -69%
Guinea pig platelets [2]; [5]
  inhibition at 10 mg/kg: -3%

## COc1ccc(S(=O)(=O)NC(CNC(=O)CNC(=O)C(CCC2CCNCC2)CCC2CCNCC2)C(=O)O)cc1 (stereo not drawn) [Example 46, 2-{[(4-Methoxyphenyl)sulphonyl]amino}-3-{[2-({4-(4-piperidyl)-2-[2-(4-piperidyl)ethyl]butanoyl}amino)acetyl]amino}propanoic Acid Dihydrochloride]
Guinea pig platelets [1]; [3]
  IC50: 0.38 µM
Guinea pig platelets [2]; [4]
  inhibition at 10 mg/kg: -18%
Guinea pig platelets [2]; [5]
  inhibition at 10 mg/kg: -31%

## O=C(CNC(=O)C(CCC1CCNCC1)CCC1CCNCC1)NCC(NC(=O)c1ccc2c(c1)OCO2)C(=O)O (stereo not drawn) [Example 25, 2-[(1,3-Benzodioxol-5-ylcarbonyl)amino]-3-{[2-({4-(4-piperidyl)-2-[2-(4-piperidyl)ethyl]butanoyl}amino)acetyl]amino}propanoic Acid Dihydrochloride]
Guinea pig platelets [1]; [3]
  IC50: 29 µM
Guinea pig platelets [2]; [6]
  inhibition at 150 mg/kg: -33%
Guinea pig platelets [2]; [7]
  inhibition at 150 mg/kg: -48%

## O=C(CNC(=O)C(CCC1CCNCC1)CCC1CCNCC1)NCC(NS(=O)(=O)c1cccc([N+](=O)[O-])c1)C(=O)O (stereo not drawn) [Example 45, 2-{[(3-Nitrophenyl)sulphonyl]amino}-3-{[2-({4-(4-piperidyl)-2-[2-(4-piperidyl)ethyl]butanoyl}amino)acetyl]amino}propanoic Acid Dihydrochloride]
Guinea pig platelets [1]; [3]
  IC50: 0.5 µM
Guinea pig platelets [2]; [4]
  inhibition at 10 mg/kg: -36%
Guinea pig platelets [2]; [5]
  inhibition at 10 mg/kg: -51%

## O=C(O)COc1cccc(C(CC(=O)O)NC(=O)CNC(=O)C(CCC2CCNCC2)CCC2CCNCC2)c1 (stereo not drawn) [Example 9, 3-[(3-Carboxymethoxy)phenyl]-3-{[2-({4-(4-piperidyl)-2-[2-(4-piperidyl)ethyl]butanoyl}amino)acetyl]amino}-propanoic Acid Dihydrochloride]
Guinea pig platelets [1]; [3]
  IC50: 5 µM
Guinea pig platelets [2]; [6]
  inhibition at 150 mg/kg: -53%
Guinea pig platelets [2]; [7]
  inhibition at 150 mg/kg: -5%

## CC(=O)Nc1nc(C)c(S(=O)(=O)NC(CNC(=O)CNC(=O)C(CCC2CCNCC2)CCC2CCNCC2)C(=O)O)s1 (stereo not drawn) [Example 50, 2-({[2-(Acetylamino)-4-methyl-1,3-thiazol-5-yl]sulphonyl}amino)-3-{[2-({4-(4-piperidyl)-2-[2-(4-piperidyl)ethyl]butanoyl}amino)acetyl]amino}propanoic Acid Dihydrochloride]
Guinea pig platelets [1]; [3]
  IC50: 3.3 µM
Guinea pig platelets [2]; [4]
  inhibition at 10 mg/kg: -22%
Guinea pig platelets [2]; [5]
  inhibition at 10 mg/kg: -39%

## O=C(CNC(=O)C(CCC1CCNCC1)CCC1CCNCC1)NCC(NS(=O)(=O)c1cccc(C(F)(F)F)c1)C(=O)O (stereo not drawn) [Example 44, 2-({[3-(Trifluoromethyl)phenyl]sulphonyl}amino)-3-{[2-({4-(4-piperidyl)-2-[2-(4-piperidyl)ethyl]butanoyl}amino)acetyl]amino}propanoic Acid Dihydrochloride]
Guinea pig platelets [1]; [3]
  IC50: 0.51 µM
Guinea pig platelets [2]; [4]
  inhibition at 10 mg/kg: -22%
Guinea pig platelets [2]; [5]
  inhibition at 10 mg/kg: -35%
